≈ marks a conversion by molar mass, not a printed value. Read-outs that look alike come from different tables or passages of the source.
Experiments:
[1] = tested on: human colon adenocarcinoma cell line (Lovo); test: MTT cytotoxicity assay on human colon adenocarcinoma Lovo cells; type: cell-based; conditions: read-out: IC50 µg/ml±S.D. LoVo
Protocol: (§1) The evaluation of the "in vitro" cytotoxic activity of the compounds of the invention was performed using a human colon adenocarcinoma cell line (Lovo) isolated from a metastatic nodule and a subline with aquired resistance to a number of antitumor agents, among which doxorubicin, VP-16 and vincristine. […] The compounds were tested according to the MTT assay (Mosman, T., "Rapid Colorimetric assay for cellular growth and survival: application to proliferation and cytotoxicity assay", J. Immunol. Methods, (1983), 65, 55-63; Green, L.M., "Rapid colorimetric assay for cell viability; application to the quantitation of cytotoxic and growth inhibitory lymphokines", J. Immunol. Methods, (1984), 70, 257-268) in comparison with mitoxantrone, ametantrone and doxorubicin.
(§2) In vitro biological evaluation: MTT assay on human colon adenocarcinoma Lovo cells.
(§3) The MTT assay was performed according to Mosmann, T., J. Immunol. Methods, (1983), 65, 55-63 and Green, L. M., J. Immunol. Methods, (1984), 70, 257-268.
(§4) Immediately before use, compounds and reference standards are dissolved in proper solvent and subsequently further diluted in complete culture medium. Human colon adenocarcinoma cells Lovo and the subline resistant to doxorubicin (Lovo/DX) (2.5. 10^4 cells/ml) are plated in 96-well plates and preincubated for 24 hours in culture medium. After this time, the cells are exposed to drugs for 144 hours, then the thiazolyl blue tetrazolium bromide solution (MTT solution) is added and the cells are reincubated for 4 hours. The supernatant is removed and 150 µl of dimethylsulfoxide are added to solubilize formazan crystals. The plate is read at 570 nm with microplate reader and the inhibiting concentration of 50% cellular growth (IC50; µg/ml) is calculated.

Lovo/DX = test: MTT cytotoxicity assay on doxorubicin-resistant subline Lovo/DX; type: cell-based, human; conditions: for IC50: Homo sapiens, LoVo/DX, MTT assay, 144 hrs drug exposure, read-out: IC50 µg/ml±S.D. LoVo/Dx; for R.I.: R.I. = (IC50 LoVo/Dx)/(IC50 LoVo); for cross resistance with mitoxantrone and ametantrone: resistant subline Lovo/DX
Protocol: as §1, §2, §3, §4

P388 Murine Leukemia [2] = test: In vivo P388 murine leukemia (iv/iv, d 1, 4, 7); conditions: for T/C% (range): median survival time; for TOX: toxic deaths/total number of mice; for LTS: tumor free at 60 days
Protocol: P388 Murine Leukemia cells were maintained in vivo by serial intraperitoneal (i.p.) injections of 10^6 cells in DBA2 mice. For test purposes, CDF1 mice were inoculated intravenously (i.v.) with 10^6 P388 cells and treatment was initiated 24 hr later. The i.v. dose of drug was administered on days 1, 4 and 7. Mice were observed daily for signs of toxicity and survival. The date of death was recorded for each animal that died or was sacrificed during the 60 day study. The median survival time (MST) for each treatment group was calculated and the % T/C was determined using the following formula: % T/C = [(MST treated)/(MST control)] x 100 [formula]

P388 Murine Leukemia [3] = test: In vivo ascitic P388 murine leukemia (ip/ip, d 1, 5, 9); design: species or system CDF1 mice; conditions: for % T/C (range): median survival time; for TOX: toxic deaths/total No. of mice
Protocol: Treatment was initiated approximately 24 hours after tumor transplantation and dosages of the drug were administered ip (P388 ip/ip) or iv (P388 iv/iv) according to preestablished protocols, usually at 3-day (P388 iv/iv) or 4-day (P388 ip/ip) intervals. The studies were done over a 60-day period and the date of death for each animal was recorded. The % T/C was determined using the mean survival time (MST) for each group according to the formula % T/C = [(MST treated)/(MST control)] x 100 [formula]
(§5) P388 Murine Leukemia cells were maintained in vivo by serial intraperitoneal (ip) injections of 10^6 cells in DBA2 mice. For test purposes, CDF1 mice were inoculated i.p. with 10^6 P388 cells and treatment was initiated 24 hours later. The i.p dose of drug was administered on days 1, 5 and 9. Mice were observed daily for signs of toxicity and survival. The date of death was recorded for each animal that died or was sacrificed during the 60-day study. The median survival time (MST) for each treatment group was calculated and the % T/C was determined using the following formula: % T/C = [(MST treated)/(MST control)] x 100 [formula]

L1210 murine leukemia = test: In vivo ascitic L1210 murine leukemia (ip/ip, d 1, 5, 9), protocol b, 10^5 cells; design: species or system CDF1 mice; conditions: for %T/C: median survival time; for TOX: toxic deaths/total No. of mice; for LTS: tumor free at 60 days
Protocol: Dosages of the drugs were administered ip according to preestablished protocols, usually at 4-day intervals. The studies were done over a 60-day period and the date of death for each animal was recorded. The % T/C was determined using the mean survival time (MST) for each group according to the formula % T/C = [(MST treated)/(MST control)] x 100 [formula]
as §5, with “• a) L1210 murine leukemia cells” for “P388 Murine Leukemia cells”, “by weekly” for “by serial”, “in BDF1” for “in DBA2”, “mice. For test purposes, mice were inoculated i.p. with 10^6 L1210 cells and treatment was initiated 24 hours later. The desired dose of drug was administered on days 1, 5 and 9. Mice were observed daily for signs of toxicity and survival. The date of death was recorded for each animal that died or was sacrificed during the 60-day study. […]” for “mice.”, “with 10^5 L1210” for “with 10^6 P388”, “The desired” for “The i.p”

[4] = MTT assay, 144 hrs drug exposure

SMILES: O=C1c2ccccc2C(=O)c2c(NCCNCCO)ccc(NCCNCCO)c21 [Ametantrone, 1,4-bis{[2-(2-hydroxyethylamino)ethyl]amino}anthracene-9,10-dione, reference compound]
- IC50 [1, 4]: 0.33 ± 0.1 µg/mL (≈ 0.8 µM)
- IC50 (Lovo/DX): 33.4 ± 13.9 µg/mL (≈ 81 µM)
- R.I. (Lovo/DX): 101.2

SMILES: CCN(CC)CCNc1ccc(NCCN(CC)CC)c2c1C(=O)c1ccncc1C2=O [Compound 10b, 6,9-Bis{[2-(diethylamino)ethyl]amino}benzo[g]isoquinoline-5,10-dione]
- IC50 [1, 4]: 0.29 ± 0.05 µg/mL (≈ 0.663 µM)
- IC50 (Lovo/DX): 0.69 ± 0.1 µg/mL (≈ 1.58 µM)
- R.I. (Lovo/DX): 2.4
- cross resistance with mitoxantrone and ametantrone (Lovo/DX): no cross resistance

SMILES: O=C1c2ccncc2C(=O)c2c(NCCN3CCCC3)ccc(NCCN3CCCC3)c21 [Compound 10d, 6,9-Bis{[2-(1'-pyrrolidino)ethyl]amino}benzo[g]isoquinoline-5,10-dione]
- IC50 [1, 4]: 0.2 ± 0.03 µg/mL (≈ 0.461 µM)
- IC50 (Lovo/DX): 0.52 ± 0.15 µg/mL (≈ 1.2 µM)
- R.I. (Lovo/DX): 2.6
- cross resistance with mitoxantrone and ametantrone (Lovo/DX): no cross resistance

SMILES: O=C1c2ccncc2C(=O)c2c(NCCN3CCOCC3)ccc(NCCN3CCOCC3)c21 [Compound 10e, 6,9-Bis{[2-(4'-morpholino)ethyl]amino}benzo[g]isoquinoline-5,10-dione]
- IC50 [1, 4]: 5.32 ± 1.55 µg/mL (≈ 11.4 µM)
- IC50 (Lovo/DX): 2.29 ± 0.67 µg/mL (≈ 4.92 µM)
- R.I. (Lovo/DX): 0.4
- cross resistance with mitoxantrone and ametantrone (Lovo/DX): no cross resistance

SMILES: NCCCNc1ccc(NCCCN)c2c1C(=O)c1ccncc1C2=O [Compound 12a, 6,9-Bis{[3-(amino)propyl]amino}benzo[g]isoquinoline-5,10-dione]
- IC50 [1, 4]: 1.64 ± 0.02 µg/mL (≈ 4.64 µM)
- IC50 (Lovo/DX): 20.9 ± 0.72 µg/mL (≈ 59.1 µM)
- R.I. (Lovo/DX): 12.7

SMILES: CN(C)CCCNc1ccc(NCCCN(C)C)c2c1C(=O)c1ccncc1C2=O [Compound 12c, 6,9-Bis{[3-(dimethylamino)propyl]amino}benzo[g]isoquinoline-5,10-dione]
- IC50 [1, 4]: 0.15 ± 0.07 µg/mL (≈ 0.366 µM)
- IC50 (Lovo/DX): 0.36 ± 0.04 µg/mL (≈ 0.879 µM)
- R.I. (Lovo/DX): 2.4
- cross resistance with mitoxantrone and ametantrone (Lovo/DX): no cross resistance

SMILES: COc1cccc2c1C(=O)c1c(O)c3c(c(O)c1C2=O)C[C@@](O)(C(=O)CO)C[C@@H]3O[C@H]1C[C@H](N)[C@H](O)[C@H](C)O1 [Doxorubicin, reference compound]
- IC50 [1, 4]: 0.03 ± 0.009 µg/mL (≈ 0.0552 µM)
- IC50 (Lovo/DX): 4.28 ± 1.8 µg/mL (≈ 7.87 µM)
- R.I. (Lovo/DX): 142.7

SMILES: O=C1c2c(O)ccc(O)c2C(=O)c2c(NCCNCCO)ccc(NCCNCCO)c21 [Mitoxantrone, 5,8-dihydroxy-1,4-bis{[2-(2-hydroxyethylamino)ethyl]amino}anthracene-9,10-dione, reference compound]
- IC50 ([1]; 144 h): 0.01 ± 0.009 µg/mL (≈ 0.0225 µM)
- IC50 (Lovo/DX): 0.29 ± 0.1 µg/mL (≈ 0.652 µM)
- R.I. (Lovo/DX): 29.0
- T/C% (range) (P388 Murine Leukemia [2]; 2 mg/kg/day iv days 1,4,7): 162(154-167) %
- TOX (P388 Murine Leukemia [2]; 2 mg/kg/day iv days 1,4,7): 0/42
- LTS (P388 Murine Leukemia [2]; 2 mg/kg/day iv days 1,4,7): 0/42
- T/C% (range) (P388 Murine Leukemia [2]; 3 mg/kg/day iv days 1,4,7): 185(167-217) %
- TOX (P388 Murine Leukemia [2]; 3 mg/kg/day iv days 1,4,7): 4/78
- LTS (P388 Murine Leukemia [2]; 3 mg/kg/day iv days 1,4,7): 0/78
- T/C% (range) (P388 Murine Leukemia [2]; 4 mg/kg/day iv days 1,4,7): 118(89-133) %
- TOX (P388 Murine Leukemia [2]; 4 mg/kg/day iv days 1,4,7): 20/24
- LTS (P388 Murine Leukemia [2]; 4 mg/kg/day iv days 1,4,7): 0/24
- LTS (day 60) (P388 Murine Leukemia [3]; 1.5 mg/kg/day ip days 1,5,9): 1/26
- % T/C (range) (P388 Murine Leukemia [3]; 1.5 mg/kg/day ip days 1,5,9): 186(160-225) %
- TOX (P388 Murine Leukemia [3]; 1.5 mg/kg/day ip days 1,5,9): 6/26
- LTS (day 60) (P388 Murine Leukemia [3]; 3 mg/kg/day ip days 1,5,9): 1/42
- % T/C (range) (P388 Murine Leukemia [3]; 3 mg/kg/day ip days 1,5,9): 173(142-205) %
- TOX (P388 Murine Leukemia [3]; 3 mg/kg/day ip days 1,5,9): 21/42
- %T/C (L1210 murine leukemia; 1.5 mg/kg/day ip days 1,5,9): 188%
- TOX (L1210 murine leukemia; 1.5 mg/kg/day ip days 1,5,9): 0/8
- LTS (L1210 murine leukemia; 1.5 mg/kg/day ip days 1,5,9): 1/8
- %T/C (L1210 murine leukemia; 3 mg/kg/day ip days 1,5,9): 194%
- TOX (L1210 murine leukemia; 3 mg/kg/day ip days 1,5,9): 1/8
- LTS (L1210 murine leukemia; 3 mg/kg/day ip days 1,5,9): 1/8
